Consider eight molecules from patent publication US5196568A, “Compounds useful in enzymatic resolution systems and their preparation” (priority 1988, dated 1993).

For series [1], the system named is Protease XXIII from Aspergillus oryzae (Enzyme A). As to the kind of experiment: Homogeneous aqueous enzymatic resolution (ester hydrolysis) with Enzyme A. Format: biochemical. The procedure:
No further purification was performed.

Series [2] deals with T1, Protease VIII "Subtilopeptidase A" (subtilisin Carlsberg) (Enzyme B) (Bacillus licheniformis, UniProt P00780).
T1 sequence (P00780 106-379): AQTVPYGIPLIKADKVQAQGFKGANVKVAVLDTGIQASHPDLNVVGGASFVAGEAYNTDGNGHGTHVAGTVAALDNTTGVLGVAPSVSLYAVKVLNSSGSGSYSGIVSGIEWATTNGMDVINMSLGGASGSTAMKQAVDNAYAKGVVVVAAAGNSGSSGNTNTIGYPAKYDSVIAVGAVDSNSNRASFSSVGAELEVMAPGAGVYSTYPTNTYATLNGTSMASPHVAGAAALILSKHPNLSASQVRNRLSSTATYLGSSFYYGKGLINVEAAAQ
As to the kind of experiment: Homogeneous aqueous enzymatic resolution with Enzyme B. The format is biochemical.

The target in series [3] is T2, Protease XXVII "Nagarse" (Enzyme D) (Bacillus amyloliquefaciens, UniProt P00782).
T2 construct: purchased Protease XXVII
T2 sequence (P00782 108-382): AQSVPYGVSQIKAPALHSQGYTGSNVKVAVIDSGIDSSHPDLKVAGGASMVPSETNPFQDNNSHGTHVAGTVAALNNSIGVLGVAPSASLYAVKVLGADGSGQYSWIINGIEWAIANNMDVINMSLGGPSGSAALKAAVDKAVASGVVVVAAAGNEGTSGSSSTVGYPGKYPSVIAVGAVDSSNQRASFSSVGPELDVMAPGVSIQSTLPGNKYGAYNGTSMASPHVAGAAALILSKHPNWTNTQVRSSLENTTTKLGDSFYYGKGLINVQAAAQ
As to the kind of experiment: Homogeneous aqueous enzymatic resolution with Enzyme D. Format: biochemical. The settings on record: acid product (R); 150 mg enzyme D, pH 7.8.

For series [4], the system named is Pig Liver Esterase (E). The series is described as follows: Homogeneous aqueous enzymatic resolution with Enzyme E. The conditions noted are these: 30 mg Pig Liver Esterase. Format: biochemical.
Series [5] can be described thus: Solubility of esters, absorbance of saturated solutions at 262 nm. Format: physicochemical. The conditions noted are these: saturated solution, pH 7 (50 mM phosphate buffer), room temperature.
The test system of series [6] is Protease XVI from Bacillus subtilis (Enzyme C). The series is described as follows: Homogeneous aqueous enzymatic resolution with Enzyme C. Format: biochemical. The settings on record: 100 mg enzyme C, 10 mmol ester in 100 ml 0.2M phosphate buffer pH 7.0, 20 hours, 20-22 C.
In series [7] the test system is protease Prozyme 6 (Enzyme F). The series is described as follows: Homogeneous aqueous enzymatic resolution with Enzyme F. The format is biochemical, Aspergillus oryzae. The settings on record: for Conversion in Homogeneous Aqueous Reaction System: 0.5M ester, pH 7.0, 30 C. Here is the method: The enzymatic reaction mixtures were capped and briefly shaken until all the substrate had dissolved, and the enzyme had completely dissolved or dispersed. […] Evaporation of the ether left a white solid. The result is summarized below in Table 11 Rotations were measured at c=1 in CHCl3.
The enzymatic reaction mixtures were capped and briefly shaken until all the substrate had dissolved, and the enzyme had completely dissolved or dispersed. […] Evaporation of the ether left a white solid. Rotations were measured at c=1 in CHCl3.
The reaction was started by adding 100 mg of the protease (F) from the fungus Aspergillus oryzae (from Amano Enzyme Corporation, Prozyme 6, 60,000 units per mg of solid).
After 20 hours at room temperature, the solution was acidified to pH 2 and extracted with 3 volumes of diethyl ether. The aqueous phase was saved for subsequent workup. The ether phase was washed with two volumes of distilled water and then one volume of saturated sodium chloride, and then it was dried over MgSO4 and subsequently evaporated to dryness. The resolved ibuprofen product recovered was 930 mg of white powder, indicating 45% conversion of racemic ester to acid. The optical rotation was -0.580° (measured at c=1 in ethanol), indicating the R isomer of ibuprofen.
35 mg of protease Enzyme F, as the commercial preparation Prozyme 6, were added to the aqueous solution. The reaction flask was capped, and briefly shaken until all the enzyme had dissolved or dispersed. […] The resulting mixture was diluted with one volume of water and was extracted with diethyl ether (2 times 200 ml). The ether layers were combined and backwashed with water (2 times 200 ml), saturated NaCl solution (200 ml), and then dried over MgSO4.
In this control run, a 0.5M ester solution of (1) was prepared in 325 ml of 0.1M sodium phosphate buffer (pH 7.0). The reaction was started by adding 3 gm of the above enzyme (F). The pH was controlled at 7.0 with 8.22M sodium hydroxide. After 6.49 hours at 30° C., 6.63 ml of hydroxide were added, indicating 37.7% conversion. The reaction was allowed to continue overnight and, after 23.1 hours, a total of 7.2 ml of sodium hydroxide were added, indicating 40.9% conversion.

The test system of series [8] is protease Prozyme 6 (Enzyme F). The series is described as follows: Asymmetric hydrolysis in an extractive dispersion reactor with Enzyme F. The format is biochemical, Aspergillus oryzae. The conditions noted are these: 100 mg Prozyme 6, 3.38 gm ester in 100 ml buffer pH 7.0 and 100 ml hexane, 3.5 hours, room temperature. The procedure:
In this Example, the hexane was dispersed in the reaction vessel to extract the inhibitory ibuprofen acid as it is formed. The reaction was started by adding 100 mg of the protease from the fungus Aspergillus oryzae (from Amano Enzyme Corporation, Prozyme 6, 60,000 units per mg of solid).
After 3.5 hours at room temperature with vigorous stirring, the solution was acidified to pH 2 and extracted with 2 volumes of hexane. The aqueous phase was saved for subsequent workup. The hexane phase was dried over MgSO4 and evaporated to dryness. The resolved ibuprofen product so recovered consisted of 490 mg of white powder, indicating 24% conversion. The optical rotation was -0.568° (c=1.015 in ethanol), indicating the R isomer of ibuprofen.

Series [9] relates to protease Prozyme 6 (Enzyme F). The series is described as follows: Asymmetric hydrolysis in an extractive membrane reactor with Enzyme F. The format is biochemical, Aspergillus oryzae. From the text: Hexane was recirculated through the lumen or bores of the fibers in the module. The aqueous solution in the shell contained the enzyme and ester. While the cellulose membrane is water-wet, the membrane rejects the macromolecular enzyme (molecular weight 18,000). Therefore, the enzyme resides solely in the aqueous ester solution. As the ibuprofen acid was formed, it was extracted into the hexane phase, thereby reducing the effect of product (ibuprofen acid) inhibition on the activity of the enzyme.
The aqueous phase used to extract the ibuprofen acid from hexane in this module contained 0.1 M sodium carbonate buffer at pH 9.5. The pH was maintained at this value by the addition of 8.22M sodium hydroxide as required.
In this Example, the aqueous stream in the extractive membrane reactor module consisted of a solution of the sulfomethyl ester of ibuprofen (1), which solution was prepared by adding 32.51 gm of the sodium salt of the ester (at 75% chemical purity) to 1000 ml of 0.1M sodium phosphate buffer (pH 7.0). The reaction was started by adding 2 gm of the protease (F) from the fungus Aspergillus oryzae (from Amano Enzyme Corporation, Prozyme 6, 60,000 units per […] of solid). Reaction progress was followed by automatic titrimetry using a pH-stat.
The pH 9.5 solution was then acidified to pH 2 and extracted with 2 volumes of t-butyl methyl ether. The ether phase was first washed with two volumes of distilled water, then dried over MgSO4. and subsequently evaporated to dryness. The resolved ibuprofen product was recovered as about 6 gm of a white powder.
The optical rotation of the recovered product was measured by polarimetry; the experimentally determined value for [α]D was -56.7° (measured at c=0.815 in ethanol), thereby indicating the R isomer of ibuprofen. The sample was also analyzed by chiral HPLC using a Bakerbond DNBPG (covalent) column (4.6×250 mm), with 96.9% hexane:3.0% 2-propanol:0.1% acetonitrile as the mobile phase at 2 ml/min after derivatization with napthalene amine. The detector was a UV spectrophotometer set at 223 nm. The retention times for the S and R ibuprofen acids were 18.5 and 20.0 min, respectively. The optical purity or enantiomeric excess of this R ibuprofen sample as determined by this chiral HPLC procedure was 99.3% (i.e., enantiomeric excess of R ibuprofen).
The aqueous phase at pH 7.0 (as recovered from the extractive membrane reactor) was mixed with 280 gm of sodium chloride to salt out the remaining unconverted ester. The ester was filtered, washed with saturated sodium chloride, and air dried. 12.8 gm of ester were recovered in this manner. […] The optical rotation (as measured by polarimetry) was [α]D =+57.4° (c=1.29 in ethanol), indicating the S isomer of ibuprofen. […]

Series [10] has as its system lipase from Candida cylindracea (Meito Sangyo, Lipase OF). The series is described as follows: Activity of Lipase OF against the ester. The format is biochemical.
The conditions of series [11]: cited from earlier work.

Structures can show the parent of a compound that is named as a salt. Some results are limits rather than exact numbers.

With `CC(C)Cc1ccc(C(C)C(=O)OCCS(=O)(=O)O)cc1` (centres unmarked) [Compound 2, Sodium Salt of 2-Sulfoethyl Ester of 2-(4-Isobutylphenyl)propanoic Acid], the “% e.e.” value is recorded as above 99% in series [1] (acid product (R), 150 mg enzyme A, 125 ml buffer pH 7.0, 18 hours) and 90.0% in series [2] (acid product (R), 150 mg enzyme B, 125 ml buffer pH 7.0, 18 hours).

Regarding `CC(C)Cc1ccc(C(C)C(=O)OCCCS(=O)(=O)O)cc1` (centres unmarked) [Compound 3, Potassium Salt of 3-Sulfopropyl Ester of 2-(4-Isobutylphenyl)propanoic Acid], the “% CONVERSION” value in series [1] (100 mg enzyme A, 10 mmol ester in 100 ml 0.2M phosphate buffer pH 7.0, 20 hours, 20-22 C) came out at 50.0%; in series [4] (0.010 mol ester in 100 ml 0.2M sodium phosphate buffer at pH 7.8 (heading: pH 7.0)), 12.1%. Also, the “conversion of the racemic ester to acid” value in series [1] (1.00 gm enzyme A, about 1 M ester, 0.1M potassium phosphate pH 7.0, 23.9 hours, room temperature, by NaOH titration) was 29%. Also, the “% e.e.” value was determined as 91.0% in [3] and 88.0% in [4] (acid product (R), pH 7.8 (heading: pH 7.0)).

As usually defined, the Solubility is the concentration that dissolves in the medium under given conditions. A higher Solubility goes with much dissolved substance. The molecule `CC(C)Cc1ccc(C(C)C(=O)OCCCCS(=O)(=O)O)cc1` (centres unmarked) [Compound 4, Potassium Salt of 4-Sulfobutyl Ester of 2-(4-Isobutylphenyl)propanoic Acid] returned a Solubility in series [5] of 1.13 M. For the same molecule, the “% CONVERSION” value in [6] turned out to be 22.0%.

Turning to `CC(CSC(=O)c1ccccc1)C(=O)OCS(=O)(=O)O` (racemic) [Compound 16, Potassium Salt of the Sulfomethyl Ester of (±)-S-3-Benzoylthio-2-methylpropanoic Acid], the “% CONVERSION” value in [1] (100 mg enzyme A, 10.0 mmol ester in 100 ml 2M Na3PO4 buffer pH 7.0, 25 C, 18 hours) was determined as 53%. Also, the “% e.e.” value in [1] (acid product (S), 100 mg enzyme A, pH 7.0, 25 C, 18 hours) was 3%; in [2] (acid product (S), 100 mg enzyme B, pH 7.0, 25 C, 18 hours), 10%.

As to `CC(C)Cc1ccc(C(C)C(=O)OCS(=O)(=O)O)cc1` (centres unmarked) [Compound 1, Sodium Salt of 4-Sulfomethyl Ester of 2-(4-Isobutylphenyl)propanoic Acid], the “% e.e.” value in series [1] (acid product (R), 100 mg enzyme A, pH 7.0, 20 hours, 20-22 C) is recorded as above 99%. Besides, the “conversion of racemic ester to acid” value in series [7] (100 mg Prozyme 6, 3.22 gm ester in 100 ml 0.2M sodium phosphate pH 7.0, 20 hours, room temperature) was 45%. Besides, the conversion is recorded as 37.7% in [7] (3 gm enzyme F, 0.5M ester in 325 ml 0.1M sodium phosphate pH 7.0, 30 C, after 6.49 hours) and 24% in series [8]. In addition, the “Conversion in Homogeneous Aqueous Reaction System” value in series [7] (3 gm enzyme F, 23.1 hours) came to 40.9%; in series [7] (3 gm enzyme F, Time 6.75 hrs), 37.7%. Further, the “conversion of the racemic ester to the acid” value in series [9] (enzyme in aqueous phase and membrane pores, 3 gm Prozyme 6, 0.5M ester, pH 7.0, 6.75 hours at 30 C) was 48.3%. In addition, in series [9] (enzyme in aqueous phase only (cellulose dialysis fibers), 2 gm Prozyme 6, 32.51 gm ester in 1000 ml pH 7.0, hexane, 6.3 hours, room temperature), the “conversion of the racemic ester to ibuprofen acid” value is recorded as 50%. The “enantiomeric excess of R ibuprofen by chiral HPLC (acid product)” value in series [9] (enzyme in aqueous phase only, 6.3 hours) is 99.3%. The “enantiomeric excess of S ibuprofen by chiral HPLC (from unconverted ester)” value in [9] (enzyme in aqueous phase only, 6.3 hours, ester hydrolysed at pH 12) stood at 98.9%. Further, in series [10], the “activity of the lipase against the ester” value is “inactive”.

For the molecule `CC(C)NCC(O)COc1cccc2ccccc12` [L-form of propranolol, propranolol], the “times more potent than the D-enantiomer” value in series [11] (L-form vs D-enantiomer) is reported as 100 times.

For `CC(C)Cc1ccc(C(C)C(=O)OCCOP(=O)(O)O)cc1` (centres unmarked) [Compound 5, Disodium Salt of the Phosphoric Acid Ester of the 2-Hydroxyethyl Ester of 2-(4-Isobutylphenyl)propanoic Acid], the “% CONVERSION” value in series [6] came to 5.3%.

As for `COc1ccc2cc([C@H](C)C(=O)O)ccc2c1` (stereo in doubt) [naproxen, (+)-S-2-(6-methoxy-2-naphthyl)propanoic acid], in series [11] (S(+) enantiomer vs R(-)), the “times more therapeutically potent than its R(-) counterpart” value is 28 times.
